{"source": "patent US6686145B1", "about": "“Rigidized trimethine cyanine dyes” (Carnegie Mellon University, priority 1997, dated 2004)", "key": {"[1]": {"target": "Grb2 glutathione-S-transferase fusion protein (Homo sapiens, UniProt P62993)", "sequence (P62993 whole entry, the tested form may be a part)": "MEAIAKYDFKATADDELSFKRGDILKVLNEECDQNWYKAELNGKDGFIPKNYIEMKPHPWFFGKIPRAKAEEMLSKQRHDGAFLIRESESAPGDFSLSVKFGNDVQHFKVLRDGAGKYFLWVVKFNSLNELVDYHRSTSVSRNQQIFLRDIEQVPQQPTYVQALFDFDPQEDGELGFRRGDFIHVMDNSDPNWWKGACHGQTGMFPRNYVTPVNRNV", "assay": "Protein:peptide polarization binding assay", "conditions": "non-specific binding defined with 100 μM unlabelled peptide, 60 minutes", "experimental": "A peptide of sequence E-pY-I-N-Q-S-V-P-K (E9K) was prepared by solid phase synthesis on an Applied Biosystems 431A peptide synthesizer using standard methods and materials. An excess of 6,7,9,10-tetrahydro-2-carboxymethyl-14-sulphonato-16,16,18,18-tetramethyl-7aH,8aH-bisindolinium[3,2-a;3′2′-a′]pyrano[3,2-c;5,6-c′]dipyridin-5-ium (Compound III), N-hydroxysuccinimide ester was coupled in DMSO in the presence of diisopropylethylamine to the free N-terminus of the protected peptide whilst still attached to the solid phase. After deprotection for two hours, the crude labelled peptide was purified by reverse phase HPLC, using a gradient from water/0.1%TFA to water:acetonitrile (40:60)/0.1%TFA over 60 minutes.\nVarious concentrations of Grb2 glutathione-S-transferase fusion protein and E9K labelled with Compound III in 20 mM MOPS pH7.4/10 mM DTT/005% Tween 20 were incubated in a final volume of 150 μl in black 96-well microplates (Dynatech) for 60 minutes. […] Polarization values were read on a Fluorolite FPM2™ plate reader (Jolley Research and Consulting Inc.) using a 530DF30 filter for excitation and 590DF45 filter for emission."}, "NF-kB-specific dsDNA": {"tested_on": "NF-kB-specific dsDNA", "assay": "Protein:DNA direct intensity binding assay", "conditions": "competitor 200 pmol/well (40 fold molar excess for p65) versus p65GST", "experimental": "All HPLC purified oligonucleotides were obtained from Genosys Biotechnologies Ltd. Equimolar amounts of a biotinylated coding strand (5′ Biotin-[…] CCGCG 3′) and an unmodified non-coding strand (5′ […] 3′) specific for NF-kB were incubated together in a boiling water bath for 3 minutes and allowed to anneal by cooling over 2 hours.\nAnti-GST antibody (3 mg/ml, 1.5 mg supplied/vial (0.5 ml) from Molecular Probes) was dialysed against 1 litre of 0.15M sodium chloride for 4 hours at room temperature and dialysis was continued overnight at 4° C. in a fresh solution of 0.15M sodium chloride. The following morning the antibody was dialysed against 1 litre of 0.1M sodium hydrogen carbonate for a maximum of 4 hours.\nA 1 mg/ml solution of 6,7,9,10-tetrahydro-2-carboxymethyl-14-sulphonato-16,16,18,18-tetramethyl-7aH,8aH-bisindolinium[3,2-a;3′2′-a′]pyrano[3,2-c;5,6-c′]dipyridin-5-ium (Compound III), N-hydroxysuccinimide ester in DMSO was added gradually with stirring to the antibody at a ratio of 0.10 mg dye: 0.33 mg antibody. […]\nBiotin-labelled NF-kB-specific dsDNA (2.5 pmol, diluted in 0.01 MMgCl2) was added to each well (final volume, 100 μl) of a 96-well streptavidin coated microplate (Boehringer Mannheim) and incubated at room temperature for 2 hours. […] The plate was read at Ex535/Em569 and Ex560/595 in the Biolumin 960 fluorescence microplate reader (Molecular Dynamics Inc.)."}, "[2]": {"tested_on": "NF-kB-specific double stranded (ds) DNA", "assay": "Protein:DNA FRET binding assay", "conditions": "competitor 200 pmol/well (10 fold molar excess for p65), Ex520/Em670", "experimental": "All HPLC purified NF-kB-specific oligonucleotides were obtained from Genosys Biotechnologies Ltd: a coding strand modified with a 5′ terminal primary amine (5′ NH2-[…] 3′) and an unmodified non-coding strand (5′ […] 3′). A 10-fold molar excess of Cy-5-NHS ester dye (Amersham Pharmacia Biotech) was incubated with the coding strand, in 0.1M sodium bicarbonate buffer (pH9), overnight at 22° C. The following morning the oligonucleotide was ethanol precipitated and then resuspended in water. The labelled coding strand was purified by reverse phase HPLC using a C18 column and a 60% TEAA/acetonitrile gradient. The peak containing labelled oligonucleotide was freeze dried and resuspended in water.\nNF-kB-specific double stranded (ds) DNA was generated by incubating together equimolar amounts of the Cy-5 labelled coding strand (5′ Cy5-[…] […] 3′) and the unmodified non-coding strand (5′ […] […] 3′) in a boiling water bath for 3 minutes and allowing to anneal by cooling over 2 hours.\nNF-kB p65 protein ([…]) was diluted to 1000 μl in 0.01M phosphate buffered saline. […]\nA black microtitre plate (Dynatech) was used for the FRET assay. […] The plate was read at Ex520/Em670 in the Biolumin 960 fluorescence microplate reader (Molecular Dynamics Inc.)."}, "[3]": {"assay": "Comparison of spectral properties of rigidized Cy3 and open chain Cy3 dyes", "assay_type": "physicochemical", "source_text": "The spectral properties of the rigidized dye were compared with the known open chain Cy3.18.OH and Cy3.10.OH dyes (FIG. 2). The absorption maxima of the rigid dye shifted to the red by 12 nm in methanol and as expected it is 10-12 time brighter that the non-rigidized indocyanines."}, "[4]": {"tested_on": "complementary probe oligonucleotide", "assay": "Nucleic acid FRET hybridization assay", "assay_type": "binding", "conditions": "560 nm excitation, 670 nm emission", "experimental": "The oligonucleotides were deprotected for 17 hours at 40° C. and purified by reverse phase HPLC using a C18 column and a 40% TEAA/acetonitrile gradient. The desired peaks were collected, freeze dried and the samples were resuspended in sterile H2O.\nAmino modified target and probe oligonucleotides were incubated with a 10-fold molar excess of 6,7,9,10-tetrahydro-2-carboxymethyl-14-sulphonato-16,16,18,18-tetramethyl-7aH,8aH-bisindolinium[3,2-a;3′2′-a′]pyrano[3,2-c;5,6-c′]dipyridin-5-ium (Compound III), N-hydroxysuccinimide ester and Cy5 NHS-ester dye (Amersham Pharmacia Biotech) respectively, in 0.1M sodium bicarbonate buffer (pH9), overnight at 22° C. The following morning, the oligonucleotides were ethanol precipitated and the resulting pellets were resuspended in H2O. […] Residues were resuspended into H2O and concentration of recovered material was determined.\nWells of a black, streptavidin coated 96-well plate were coated with either unlabelled or Compound III-labelled target oligonucleotides (20 pmol/well diluted in 100 μl PBS/1 MgCl2) for 120 minutes at ambient temperature. […] Finally, wells were washed vigorously with PBS and fluorescence intensity was measured on a fluorescence plate reader using a 560 nm excitation filter and a 670 nm emission filter (FIG. 7)."}}, "note": "Where no end group is shown, it is not given here. [ ]: non-standard residue; d: D form. Compound III = 6,7,9,10-tetrahydro-2-carboxymethyl-14-sulphonato-16,16,18,18-tetramethyl-7aH,8aH-bisindolinium[3,2-a,3'2'-a']pyrano[3,2-c,5,6-c']dipyridin-5-ium dye (NHS ester used for labelling); {C7NH2-CompoundIII} = C7 amino linker labelled with Compound III NHS ester; pY = N[C@@H](Cc1ccc(OP(=O)(O)O)cc1)C(=O)O", "data": [{"compound": "Compound III-labelled peptide: peptide E-pY-I-N-Q-S-V-P-K (E9K) labelled at the free N-terminus with Compound III ({Compound III}-E[pY]INQSVPK)", "values": [{"measurement": "binding to Grb2 protein as determined by change in polarization", "setting": "[1]", "result": "specific binding"}]}, {"compound": "p65: NF-kB p65 protein, specific competitor", "values": [{"measurement": "reduction of the total signal", "setting": "NF-kB-specific dsDNA", "result": "approximately 90%"}, {"measurement": "reduction of the total signal", "setting": "[2]", "result": 40, "unit": "%"}]}, {"compound": "CC1(C)C2=C3C=C4C5=[N+](CCC4OC3CCN2c2ccc(CC(=O)O)cc21)c1ccc(CC(=O)O)cc1C5(C)C", "note": "(centres unmarked) [Compound I, 6,7,9,10-Tetrahydro-2,14-carboxymethyl-16,16,18,18-tetramethyl-7aH,8aH-bisindolinium[3,2-a;3′2′-a′]pyrano[3,2-c;5,6-c′]dipyridin-5-ium]", "values": [{"measurement": "QY (Φ)", "setting": "[3]; dye in methanol", "result": 0.8}, {"measurement": "λmax", "setting": "[3]; dye in methanol", "result": 565}, {"measurement": "absorption maxima shifted to the red", "setting": "[3]; in methanol, versus open chain Cy3 dyes", "result": 12, "unit": "nm"}, {"measurement": "brightness relative to the non-rigidized indocyanines", "setting": "[3]; versus non-rigidized indocyanines", "result": "10-12 time"}]}, {"compound": "Compound III-labelled target oligonucleotide: 5′ C7 amino-modified TAC CCA GAC GAG CAA-biotin 3′ labelled with Compound III NHS ester (DNA TACCCAGACGAGCAA; DNA, 5' {C7NH2-CompoundIII}, 3' {Biotin}, backbone not given here)", "values": [{"measurement": "fluorescence signal (FRET)", "setting": "[4]; incubated with Cy5-labelled probe", "result": "strong fluorescence signal"}, {"measurement": "fluorescence signal (FRET)", "setting": "[4]; incubated with unlabelled probe", "result": "low fluorescence signals"}]}, {"compound": "casein", "values": [{"measurement": "reduction of the total signal", "setting": "NF-kB-specific dsDNA", "result": 25, "unit": "%"}, {"measurement": "reduction of the total signal", "setting": "[2]", "result": "no effect"}]}]}
